What was measured:
HeLa cells = assay: CFSE staining of cell proliferation, flow cytometry; format: cell-based, human; conditions: IC50 dose, 72 h
Method: To analyze the distribution of cells in the different phases of the cell cycle using flow cytometry, cells were collected at the end of the treatment and processed as previously described. To detect the presence of apoptotic cells, the treated HeLa cells were double-stained with Annexin V-FITC/PI in Annexin V-binding buffer according to the manufacturer’s instructions. For caspase activation, cells were incubated with FITC-labeled pan-caspase inhibitor ApoStat (0.5 μg/mL) for 30 min at 37 °C. The cells were then washed, resuspended in PBS, and analyzed using flow cytometry. The effect of the compounds on cell proliferation was analyzed via CFSE staining using flow cytometry in the same manner as previously described. DAF-FM was used to determine the intracellular production of nitric oxide in the treated HeLa cells, DHE was used to detect intracellular superoxide and hydrogen peroxide, and DHR123 was used to detect the cumulative intracellular production of reactive oxygen species and nitrogen species. These assays were performed as described in previously published studies. All flow cytometry data were obtained in a CytoFLEX cytometer (Beckman Coulter, Brea, CA, USA) and analyzed using FlowJo software v10 (Tree Star, Ashland, OR, USA).

[1] = tested on: Peritoneal exudate cells (PECs); assay: Crystal violet (CV) viability assay on primary cells, 72 h; format: cell-based, C57BL/6 mice; conditions: mouse peritoneal exudate cells, read-out: IC50 PEC CV
Method: Peritoneal exudate cells (PECs) were isolated from the peritonea of 8–12-week-old C57BL/6 mice via a cavity rinse with ice-cold PBS. Cells were seeded in HEPES-buffered RPMI-1640 medium supplemented with 5% heat-inactivated FBS and antibiotics. The animals were from the animal facility of the Institute for Biological Research “Siniša Stanković” (IBISS) National Institute of the Republic of Serbia (Belgrade, Serbia). Animal handling was conducted and protocols were followed by the local Institutional Animal Care and Use Committee (IACUC) in accordance with local guidelines as well as European Community directives (EEC Directive of 1986; 86/609/EEC). The ethical approval number is 323-07-02147/2023-05.
(§1) The cells were treated with a range of CL, CC, and cisplatin concentrations for 72 h. At the end of the treatment, the cell viability was determined using MTT and crystal violet assays, as previously described. PECs were seeded at a density of 1.8 × 10^5 cells/well in 96-well plates, and two hours later, non-adherent cells were removed by washing the wells with PBS. The remaining adherent cells were treated the same way as the tumor cells. The PEC viability was estimated after 72 h of treatment using the CV assay only.

[2] = target: T1, human serum albumin (HSA) (Homo sapiens, UniProt P02768); assay: Spectrofluorimetric titration, HSA fluorescence quenching; format: binding; conditions: for KSV (Stern–Volmer quenching constant) / kq (quenching rate constant): PBS, 2.0 µM HSA; for ΔH° of HSA binding / ΔS° of HSA binding: van't Hoff, 296–310 K
T1 construct: purchased Sigma-Aldrich
Method: The fluorescence spectroscopy method was used to examine the possible binding ways of human serum albumin (HSA) with the investigated compounds. […] The fluorescence of HSA was recorded at an excitation wavelength of 290 nm, while the recording range was set at 300–500 nm. The gradual decrease in the maximum emission intensity of the HSA with an increasing concentration of all investigated compounds was monitored at about 330 nm.
Fluorescence quenching parameters were determined using the Stern–Volmer equation (Equation (2)):(2) I0/I=1+kqτ0Q=1+KSVQ.
The notations in the previous equation include I0 and I as HSA fluorescence intensities in the absence and presence of the quencher, while KSV and kq are the Stern–Volmer quenching constant and the quenching rate constant of HSA, τ0 is the fluorophore lifetime of HSA (in the absence of the quencher), and [Q] is the concentration of the quencher. The binding constant (Kb) and the number of binding sites (n) were calculated using the Hill equation (Equation (3)):(3) logI0−I/I=logKb+nlogQ. where I0 and I represent the HSA fluorescence intensities in the absence and presence of the quencher, and [Q] is the concentration of the quencher.
The thermodynamic parameters ΔH°, ΔS°, and ΔG° were calculated using the following equations:(4) lnKb=−∆H^°/RT+∆S^°/R (5) ∆G^°=∆H^°−T∆S^°
To obtain information on the quenching, binding, and thermodynamic parameters for the interaction of the ligand and complex (CL and CC) towards human serum albumin (HSA), spectrofluorimetric investigations were carried out. All experiments were performed under physiological conditions in phosphate-buffered saline (PBS) and at different temperatures (296 K, 303 K, and 310 K).

[3] = tested on: HeLa (human cervical adenocarcinoma cells); assay: MTT viability assay, 72 h; format: cell-based; conditions: mean ± SD of three experiments
Method: (§2) HeLa (human cervical adenocarcinoma cells), A2780 (human ovarian carcinoma cells), MCF7 (human breast adenocarcinoma cells), and HCT116 (human colorectal carcinoma cells) were purchased from American Type Culture Collection (ATCC, Rockville, MD, USA). HeLa, MCF-7, and HCT116 cells were cultivated in HEPES-buffered RPMI-1640, while A2780 cells were cultivated in DMEM. The media were supplemented with 10% heat-inactivated FBS and antibiotics (100 units/mL penicillin and 100 μg/mL streptomycin). The cells were grown at 37 °C in a humidified atmosphere with 5% CO2. For the viability assays, HeLa (3 × 10^3/well), A2780 (8 × 10^3/well), MCF7 (7 × 10^3/well), and HCT116 (6 × 10^3/well) cells were seeded in adherent flat-bottom 96-well plates. For the flow cytometric analyses, HeLa cells were seeded at 8 × 10^4 in 6-well plates.
as §1

[4] = tested on: MCF7 (human breast adenocarcinoma cells); assay: MTT viability assay, 72 h; format: cell-based; conditions: MCF7, 72 h, mean ± SD
Method: as §2, §1

[5] = tested on: HCT116 (human colorectal carcinoma cells); assay: MTT viability assay, 72 h; format: cell-based; conditions: HCT-116, HCT116, 72 h, mean ± SD
Method: as §2, §1

[6] = tested on: A2780 (human ovarian carcinoma cells); assay: MTT viability assay, 72 h; format: cell-based; conditions: A2780, 72 h, mean ± SD
Method: as §2, §1

[7] = tested on: HeLa (human cervical adenocarcinoma cells); assay: Crystal violet (CV) viability assay, 72 h; format: cell-based
Method: as §2, §1

[8] = tested on: MCF7 (human breast adenocarcinoma cells); assay: Crystal violet (CV) viability assay, 72 h; format: cell-based; conditions: MCF7, 72 h, mean ± SD
Method: as §2, §1

[9] = tested on: HCT116 (human colorectal carcinoma cells); assay: Crystal violet (CV) viability assay, 72 h; format: cell-based; conditions: HCT-116, HCT116, 72 h, mean ± SD
Method: as §2, §1

[10] = tested on: A2780 (human ovarian carcinoma cells); assay: Crystal violet (CV) viability assay, 72 h; format: cell-based; conditions: A2780, 72 h, mean ± SD
Method: as §2, §1

T1 sequence (P02768 25-609): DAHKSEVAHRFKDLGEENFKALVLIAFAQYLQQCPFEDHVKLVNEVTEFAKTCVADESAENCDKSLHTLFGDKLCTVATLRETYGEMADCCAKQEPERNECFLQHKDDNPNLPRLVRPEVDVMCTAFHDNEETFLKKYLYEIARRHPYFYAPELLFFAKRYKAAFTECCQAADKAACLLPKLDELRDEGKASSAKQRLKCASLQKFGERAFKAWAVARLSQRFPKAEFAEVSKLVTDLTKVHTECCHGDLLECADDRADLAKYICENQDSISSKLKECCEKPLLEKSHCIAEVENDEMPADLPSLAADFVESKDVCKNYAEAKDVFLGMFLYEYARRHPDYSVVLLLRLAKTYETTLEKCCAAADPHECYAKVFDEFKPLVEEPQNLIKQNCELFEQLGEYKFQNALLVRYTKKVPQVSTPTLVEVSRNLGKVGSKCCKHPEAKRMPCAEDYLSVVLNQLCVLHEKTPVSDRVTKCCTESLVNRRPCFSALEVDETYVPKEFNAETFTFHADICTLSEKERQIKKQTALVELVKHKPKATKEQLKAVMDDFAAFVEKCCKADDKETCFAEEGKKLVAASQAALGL

Structure (SMILES)	effect on proliferation of HeLa cells (CFSE) (HeLa cells)	IC50 [1] [µM]	n (HSA), number of binding sites ([2]; 296 K)	ΔG° of HSA binding ([2]; 296 K) [kcal/mol]	KSV (Stern–Volmer quenching constant) ([2]; 296 K) [M⁻¹]	kq (quenching rate constant) ([2]; 296 K)	n (HSA), number of binding sites ([2]; 303 K)	ΔG° of HSA binding ([2]; 303 K) [kcal/mol]	KSV (Stern–Volmer quenching constant) ([2]; 303 K) [M⁻¹]	kq (quenching rate constant) ([2]; 303 K) [M⁻¹ s⁻¹]	n (HSA), number of binding sites ([2]; 310 K)	ΔG° of HSA binding ([2]; 310 K) [kcal/mol]	KSV (Stern–Volmer quenching constant) ([2]; 310 K) [M⁻¹]	kq (quenching rate constant) ([2]; 310 K) [M⁻¹ s⁻¹]	ΔH° of HSA binding [2] [kcal/mol]	ΔS° of HSA binding [2] [J mol^−1K^−1]	other results
COc1cc(N/C(C)=C2/C(=O)Oc3cc(OC(C)=O)ccc3C2=O)ccc1O [CL, (E)-3-(1-((4-hydroxy-3-methoxyphenyl)amino)ethylidene)-2,4-dioxochroman-7-yl acetate]	does not inhibit the proliferation of HeLa cells	96.3	0.66	-4.515	95600	9.56e+12 M⁻¹ s⁻¹	0.71	-5.533	76900	7.69e+12	1.09	-6.551	72700	7.27e+12	38.535	608.51	IC50 [3]: 11.1 ± 0.4 µM; IC50 [4]: 45.6 ± 3.5 µM; IC50 [5]: 54.4 ± 4.3 µM; IC50 [6]: 21.1 ± 1.4 µM; IC50 ([7]; CV assay, mean ± SD of three experiments, read-out: IC50 HeLa CV): 17.7 ± 1.2 µM; IC50 ([7]; rounded IC50 used as treatment dose, assay not stated (matches CV), read-out: IC50 values on HeLa cells as used for flow cytometry treatment): 17 µM; IC50 [8]: 44 ± 1.7 µM; IC50 [9]: 60.2 ± 3.8 µM; IC50 [10]: 24.1 ± 1.4 µM
COc1cc([N+]2=C(C)c3c(c4ccc(OC(C)=O)cc4oc3=O)[O][Pd-2]23[O]c2c(c(=O)oc4cc(OC(C)=O)ccc24)C(C)=[N+]3c2ccc(O)c(OC)c2)ccc1O [CC, Bis-3-(1-((4-hydroxy-3-methoxyphenyl)amino)ethylidene)-2,4-dioxochroman-7-yl acetate palladium(II) complex]	does not inhibit the proliferation of HeLa cells	92.9	1.07	-7.921	295000	2.95e+13 M⁻¹	1.06	-7.99	272000	2.72e+13	1.10	-8.059	280000	2.8e+13	-5.014	−41.09	–

Source: paper PMC11597210, “A Comprehensive Evaluation of a Coumarin Derivative and Its Corresponding Palladium Complex as Potential Therapeutic Agents in the Treatment of Gynecological Cancers: Synthesis, Characterization, and Cytotoxicity” (Pharmaceutics, 2024)
